Experimental data: US5025033A, “Alkylene diamines” (Takeda Chemical Industries, Ltd., priority 1988, dated 1991)
Counter-ions that a name gives are not always drawn.

Target: T1, Acetylcholinesterase (Rattus norvegicus, UniProt P37136)
T1 construct: the S1 fraction of a male Wistar rat cerebral cortex homogenate was used as a cholinesterase source; from tissue; host or cells: male Wistar rat cerebral cortex homogenate, S1 fraction
Assay: Acetylcholinesterase inhibiting activity using (acetyl-[3H])-acetylcholine, S1 fraction of rat cerebral cortex homogenate
Format: biochemical, male Wistar rat
Conditions: rat cerebral cortex homogenate S1 fraction; 30 minutes of incubation; read-out: Acetylcholinesterase inhibiting activity IC50
Description: The compounds according to the invention were examined for cholinesterase inhibiting activity using (acetyl-[^3 H])-acetylcholine. Thus, the S1 fraction of a male Wistar rat cerebral cortex homogenate was used as a cholinesterase source, and (acetyl-[^3 H])-acetylcholine (as substrate) and each test compound according to the invention were added and, after 30 minutes of incubation, the reaction was terminated. A toluene type scintillator was added, and the mixture was shaken, whereby the reaction product [^3 H]-acetic acid was transferred to the toluene layer. The cholinesterase activity was determined by counting said [^3 H]-acetic acid with a liquid scintillation counter.
The cholinesterase inhibiting activity of each test compound was expressed in terms of 50% inhibitory concentration (IC50).

T1 sequence (P37136 32-614): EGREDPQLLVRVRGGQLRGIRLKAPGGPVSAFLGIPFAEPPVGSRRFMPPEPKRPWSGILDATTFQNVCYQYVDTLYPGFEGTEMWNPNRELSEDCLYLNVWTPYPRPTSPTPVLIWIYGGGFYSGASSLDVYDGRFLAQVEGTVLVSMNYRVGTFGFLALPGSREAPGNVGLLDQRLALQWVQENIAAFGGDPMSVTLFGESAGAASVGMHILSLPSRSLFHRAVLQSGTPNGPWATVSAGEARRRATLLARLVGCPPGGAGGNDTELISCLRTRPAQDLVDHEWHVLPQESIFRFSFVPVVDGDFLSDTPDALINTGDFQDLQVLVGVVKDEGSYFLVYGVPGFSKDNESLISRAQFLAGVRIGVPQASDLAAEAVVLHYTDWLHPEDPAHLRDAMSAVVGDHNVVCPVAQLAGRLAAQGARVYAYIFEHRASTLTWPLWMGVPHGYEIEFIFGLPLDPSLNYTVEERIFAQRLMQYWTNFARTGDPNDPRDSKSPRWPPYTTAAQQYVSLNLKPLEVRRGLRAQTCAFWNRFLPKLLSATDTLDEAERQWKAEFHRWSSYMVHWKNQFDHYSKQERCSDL

| Compound | IC50 |
| --- | --- |
| CCN(CCCCCNC(=O)/C=C/c1ccc(OC)c(OC)c1)Cc1ccccc1 [Compound 14-11] | 5400 nM |
| CN(CCCCN1C(=O)c2ccc(N)cc2C1=O)Cc1ccccc1 [Compound 3, 5-Amino-2-[4-(N-benzyl-N-methyl)aminobutyl]-1H-isoindole-1,3(2H)-dione hydrochloride] | 34000 nM |
| CCN(CCCCCNC(=O)/C=C/c1ccc(Cl)c([N+](=O)[O-])c1)Cc1ccccc1OC [Compound 18-1] | 220 nM |
| CCN(CCCCCN1C(=O)c2ccc(NS(=O)(=O)c3ccc(C)cc3)cc2C1=O)Cc1ccccc1 [Compound 11-4] | 2200 nM |
| CN(CCCCCCN1C(=O)c2ccc([N+](=O)[O-])cc2C1=O)Cc1ccccc1 [Compound 2-9] | 480 nM |
| O=C1c2ccc([N+](=O)[O-])cc2C(=O)N1CCCCNCc1cccc2ccccc12 [Compound 8-2] | 2900 nM |
| CCN(CCCNC(=O)/C=C/c1ccc([N+](=O)[O-])cc1)Cc1ccccc1 [Compound 14-9] | 11000 nM |
| CCN(CCCCCN1C(=O)c2ccc([N+](=O)[O-])cc2C1=O)Cc1cccc(Cl)c1 [Compound 2-20] | 240 nM |
| CCN(CCCCCNC(=O)/C=C/c1ccccc1[N+](=O)[O-])Cc1ccccc1 [Compound 14-12] | 3900 nM |
| CN(CCCCNC(=O)/C=C/c1ccccc1[N+](=O)[O-])Cc1ccccc1 [Compound 14-2] | 18000 nM |
| CCN(CCCCCN1C(=O)c2ccc([N+](=O)[O-])cc2C1=O)Cc1ccc(C)cc1 [Compound 2-17] | 370 nM |
| CCN(CCCCCN1C(=O)c2ccc(OC)cc2C1=O)Cc1ccccc1 [Compound 12-6] | 710 nM |
| CCN(CCCCCNC(=O)/C=C/c1ccc(C#N)cc1)Cc1ccccc1OC [Compound 18-4] | 370 nM |
| CCCCN(CCCCN1C(=O)c2ccc([N+](=O)[O-])cc2C1=O)Cc1ccccc1 [Compound 2-11] | 1900 nM |
| CN(CCCCNC(=O)/C=C/c1ccc([N+](=O)[O-])cc1)Cc1ccccc1 [Compound 9, (E)-N-[4-(N-Methyl-N-benzyl)aminobutyl]-3-(4-nitrophenyl)-2-propenamide] | 14000 nM |
| CCN(CCCCCNC(=O)/C=C/c1ccc(C)cc1)Cc1ccccc1 [Compound 14-15] | 16000 nM |
| CCN(CCCCCN1C(=O)c2ccc([N+](=O)[O-])cc2C1=O)Cc1ccccc1F [Compound 2-22] | 270 nM |
| CCN(CCCCCN(C(C)=O)C(=O)/C=C/c1cccc(NC(C)=O)c1)Cc1ccccc1 [Compound 21-1] | 1800 nM |
| CCN(CCCN1C(=O)c2ccc([N+](=O)[O-])cc2C1=O)Cc1ccccc1 [Compound 2-13] | 10000 nM |
| CCN(CCCCCN(C(C)=O)C(=O)/C=C/c1ccc(C#N)cc1)Cc1ccccc1 [Compound 16-6] | 460 nM |
| CCN(CCCCCN1C(=O)c2ccc([N+](=O)[O-])cc2C1=O)Cc1ccccc1C [Compound 2-23] | 110 nM |
| CC(=O)N(CCCCN(C)Cc1ccccc1)C(=O)/C=C/c1ccc([N+](=O)[O-])cc1 [Compound 15, (E)-N-Acetyl-N-[4-(N-methyl-N-benzyl)aminobutyl]-3-(4-nitrophenyl)-2-propenamide hydrochloride] | 19000 nM |
| CCN(CCCCCN1C(=O)c2ccc(O)cc2C1=O)Cc1ccccc1 [Compound 12-4] | 2500 nM |
| CCN(CCCCCNC(=O)/C=C/c1ccc(S(C)(=O)=O)cc1)Cc1ccccc1OC [Compound 18-3] | 230 nM |
| CCN(CCCCCN1C(=O)c2ccc([N+](=O)[O-])cc2C1=O)Cc1ccccc1OC [Compound 2-25] | 28 nM |
| O=C1c2ccc([N+](=O)[O-])cc2C(=O)N1CCCCN(CCO)Cc1ccccc1 [Compound 2-4] | 1500 nM |
| CC(=O)Nc1ccc2c(c1)C(=O)N(CCCCN(C)Cc1ccccc1)C2=O [Compound 5-1] | 11000 nM |

| Compound | IC50 |
| --- | --- |
| CCN(CCCCCN1C(=O)c2ccc([N+](=O)[O-])cc2C1=O)Cc1cccc2ccccc12 [Compound 2-28] | 110 nM |
| CN(CCCCNC(=O)/C=C/c1cccc([N+](=O)[O-])c1)Cc1ccccc1 [Compound 14-1] | 13000 nM |
| CCN(CCCCCN(C(C)=O)C(=O)/C=C/c1ccc(Cl)cc1)Cc1ccccc1 [Compound 16-5] | 2200 nM |
| CCN(CCCCCN1C(=O)c2ccc(C(=O)NC)cc2C1=O)Cc1ccccc1 [Compound 12-13] | 380 nM |
| CCN(CCCCCNC(=O)/C=C/c1ccc([S+](C)[O-])cc1)Cc1ccccc1 (centres unmarked) [Compound 14-21] | 7500 nM |
| CC(C)N(CCCCN1C(=O)c2ccc([N+](=O)[O-])cc2C1=O)Cc1ccccc1 [Compound 2-7] | 490 nM |
| CN(CCCCN1C(=O)c2ccc([N+](=O)[O-])cc2C1=O)Cc1ccccc1 [Compound 1, 2-[4-(N-Benzyl-N-methyl)aminobutyl]-5-nitro-1H--isoindole-1,3(2H)-dione hydrochloride] | 9500 nM |
| CCN(CCCCCNC(=O)/C=C/c1ccc(S(C)(=O)=O)cc1)Cc1ccccc1 [Compound 14-22] | 3200 nM |
| CCN(CCCCCN(C(C)=O)C(=O)/C=C/c1cccc(N)c1)Cc1ccccc1 [Compound 20-2] | 2400 nM |
| CCN(CCCCCN1C(=O)c2ccc([N+](=O)[O-])cc2C1=O)Cc1cccc(OC)c1 [Compound 2-26] | 45 nM |
| CCN(CCCCCNC(=O)/C=C/c1cccc(N)c1)Cc1ccccc1 [Compound 20-1] | 19000 nM |
| CCN(CCCCCN1C(=O)c2ccc([N+](=O)[O-])cc2C1=O)Cc1ccc(Cl)cc1 [Compound 2-19] | 240 nM |
| CCN(CCCCCNC(=O)/C=C/c1ccc(SC)cc1)Cc1ccccc1 [Compound 14-20] | 21000 nM |
| CCN(CCCCCN1C(=O)c2ccc(N)cc2C1=O)Cc1ccccc1 [Compound 10, 5-Amino-2-[5-(N-benzyl-N-ethyl)aminopentyl]-1H -isoindole-1,3(2H)-dione dihydrochloride] | 1200 nM |
| CN(CCCCCN1C(=O)c2ccc([N+](=O)[O-])cc2C1=O)Cc1ccccc1 [Compound 2-2] | 1400 nM |
| CCN(CCCCCN1C(=O)c2ccc([N+](=O)[O-])cc2C1=O)Cc1ccccc1Cl [Compound 2-21] | 130 nM |
| CCN(CCCCCN1C(=O)c2ccc(NC(=O)Cc3ccccc3)cc2C1=O)Cc1ccccc1 [Compound 11-3] | 1500 nM |
| CCN(CCCCCN1C(=O)c2ccc([N+](=O)[O-])cc2C1=O)Cc1ccc(OC)cc1 [Compound 2-18] | 270 nM |
| CCN(CCCCCNC(=O)/C=C/c1ccc(OC)cc1)Cc1ccccc1 [Compound 14-18] | 16000 nM |
| CCN(CCCCCN1C(=O)c2ccc([N+](=O)[O-])cc2C1=O)Cc1ccccc1[N+](=O)[O-] [Compound 2-24] | 490 nM |
| CCN(CCCCCCN(C(C)=O)C(=O)/C=C/c1ccc([N+](=O)[O-])cc1)Cc1ccccc1 [Compound 16-3] | 3000 nM |
| CCN(CCCCCN1C(=O)c2ccc(OC(C)=O)cc2C1=O)Cc1ccccc1 [Compound 12-5] | 2100 nM |
| CCN(CCCCCNC(=O)/C=C/c1ccc(Cl)cc1)Cc1ccccc1 [Compound 14-14] | 16000 nM |
| CCN(CCCCCN1C(=O)c2ccc(C(=O)O)cc2C1=O)Cc1ccccc1 [Compound 12-8, 2-[5-(N-benzyl-N-ethyl)aminopentyl]-1,3-dioxo-1H-isoindole-5-carboxylic acid hydrochloride] | 8800 nM |
| CCN(CCCCCNC(=O)/C=C/c1ccc(Cl)c([N+](=O)[O-])c1)Cc1ccccc1 [Compound 14-25] | 1900 nM |
| CCN(CCCCN(C(C)=O)C(=O)/C=C/c1ccc([N+](=O)[O-])cc1)Cc1ccccc1 [Compound 16-1] | 7300 nM |
